In patent publication US8383666B2, “Pyrrole derivatives, preparation of same and therapeutic application thereof” (Sanofi, priority 2008, dated 2013):

Experiments:
[1] = biological target: T1, CB1 receptors present in the brain (Mus musculus, UniProt P47746); assay: Measurement (2): ex vivo binding of [3H]-CP55940 in the brain after intravenous administration; set-up: the CB1 receptors present in the brain in mice; from tissue; host or cells: mouse brain (after intravenous dosing); details: iv at 10 mg/kg, mice, read-out: % inhibition of [3H]-CP55940 binding at the level of the brain
From the text: (§1) Preferably, this percentage is less than 40%, and more preferably less than 30%.

[2] = biological target: T1, CB1 receptors present in the brain; assay: Measurement (3): blocking of the hypothermic effect induced by CP55940; type: in vivo; set-up: [CB1 receptors present; from tissue; host or cells: living animal, brain CB1 receptors; details: iv at 10 mg/kg
From the text: as §1

[3] = Measurement (1): quantification of compound in brain and plasma by LC-MS/MS; type: in vivo; details: iv at 3 mg/kg, according to measurement (1), mouse, read-out: Ratio: Amount present in the brain/Amount present in the plasma
From the text: as §1

[4] = biological target: T2, CB1 receptors present at the periphery (Mus musculus, UniProt P47746); assay: blocking of the inhibitory effect of CP55940 on gastrointestinal transit; type: in vivo; details: per os at 10 mg/kg, mice
T2 construct: from tissue; host or cells: living mouse, peripheral (gastrointestinal) CB1 receptors
T2 sequence (P47746 whole entry): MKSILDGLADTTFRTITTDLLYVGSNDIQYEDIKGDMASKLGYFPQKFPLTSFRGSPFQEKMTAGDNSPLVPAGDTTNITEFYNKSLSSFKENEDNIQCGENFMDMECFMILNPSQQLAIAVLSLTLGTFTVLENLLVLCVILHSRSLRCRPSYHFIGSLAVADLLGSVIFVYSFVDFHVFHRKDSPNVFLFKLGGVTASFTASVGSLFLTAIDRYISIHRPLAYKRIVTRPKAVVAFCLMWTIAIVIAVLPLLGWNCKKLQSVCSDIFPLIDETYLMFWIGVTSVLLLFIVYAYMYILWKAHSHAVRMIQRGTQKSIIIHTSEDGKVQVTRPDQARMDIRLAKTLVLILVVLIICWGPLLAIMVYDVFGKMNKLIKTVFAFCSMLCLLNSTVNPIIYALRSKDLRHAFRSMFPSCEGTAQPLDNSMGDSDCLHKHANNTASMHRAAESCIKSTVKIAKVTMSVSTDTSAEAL

T1 sequence (P47746 whole entry): as above

| Compound | inhibition at 10 mg/kg [1] | % reversion of the hypothermic effect of CP55940 [2] | Kp [3] | % reversion of the effect of CP55940 on GI transit [4] |
| --- | --- | --- | --- | --- |
| Cn1c(C(=O)N2CCC(NCc3cccc(F)c3)(C(N)=O)CC2)cc(-c2ccc(Cl)cc2Cl)c1-c1ccc(OCCCO)cc1 [Compound 11, 1-[4-(2,4-dichlorophenyl)-5-[4-(3-hydroxypropoxy)phenyl]-1-methyl-1H-pyrrole-2-carbonyl]-4-(3-fluorobenzylamino)piperidine-4-carboxamide] | 25% | 64% |  |  |
| Cn1c(C(=O)N2CCC(C(N)=O)(c3ccccc3)CC2)cc(-c2ccc(Cl)cc2Cl)c1-c1ccc(OCC(N)=O)cc1 [Compound 16, 1-[5-(4-carbamoylmethoxy)phenyl-4-(2,4-dichlorophenyl)-1-methyl-1H-pyrrole-2-carbonyl]-4-phenylpiperidine-4-carboxamide] | 8% | 3% | 0.05 | 76% |
| Cn1c(C(=O)N2CCC(NCc3ccc(F)cc3)(C(N)=O)CC2)cc(-c2ccccc2Cl)c1-c1ccc(OCCCO)cc1 [Compound 24, 1-[4-(2-chlorophenyl)-5-[4-(3-hydroxypropoxy)phenyl]-1-methyl-1H-pyrrole-2-carbonyl]-4-(4-fluorobenzylamino)piperidine-4-carboxamide] | 1% | 20% |  | 100% |
